Like-named read-outs stand apart in the source and are kept apart here.
Key:
VIM-1 = VIM-1 (Pseudomonas aeruginosa (strain ATCC 15692 / DSM 22644 / CIP 104116 / JCM 14847 / LMG 12228 / 1C / PRS 101 / PAO1), UniProt A0A0F7KYQ8); assay: biochemical; settings: CCF2-FA substrate, 30 pM enzyme, 2 hours at 25° C.
Outline: (§1)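 Semi-log dose-response curves, fitted with a 4-parameter model, gave IC50s. The underlying signal was CCF2-FA fluorescence following 2 hours at 25° C with enzyme, substrate and inhibitor combined.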

IMP-1 = IMP-1 (Serratia marcescens, UniProt P52699); assay: biochemical; assay type: biochemical; settings: fluorescence assay, CCF2-FA substrate, 2 pM enzyme, 2 hours at 25° C.; read-out: IMP-1 IC50
Outline: as §1

NDM-1 = NDM-1 (Klebsiella pneumoniae, UniProt C7C422); assay: biochemical; assay type: biochemical; settings: fluorescence assay, CCF2-FA substrate, 1 pM enzyme, 2 hours at 25° C.; read-out: NDM-1 IC50
Outline: as §1

[1] = system: Pseudomonas aeruginosa MB9798 vs MB9799
Outline: (§2)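 PAO1 pair, broth microdilution; fixed β-lactam (imipenem/ceftazidime) at ~CLSI breakpoint + fixed class A/C BLI for AmpC; serial MBLi titration; endpoint = MBLi conc. restoring susceptibility; MB9798:MB9799 ratio = efflux liability.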

[2] = system: Escherichia coli expressing NDM-1 (CLB30005, CLB30016); assay type: cell-based; settings: with imipenem 1 μg/ml; for Escherichia coli MITC95: NDM-1 strain, 95% inhibition of growth; for Escherichia coli expressing NDM-1 (CLB30016) MITC95: 95% inhibition of bacterial growth
Outline: (§3)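 Clinical strains grown overnight on blood agar at 35°C, colonies suspended in saline, diluted 1:100 into 1.1×CAMHB. Test compound titrated with imipenem at 1 μg/ml; incubated 22–24 h at 35°C, growth read by absorbance.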

[3] = system: Klebsiella pneumoniae expressing VIM-1 (IHMA599644); assay type: cell-based; settings: for Klebsiella pneumoniae MITC95: VIM-1 strain IHMA599644, with imipenem 1 μg/ml, 95% inhibition of growth; for Klebsiella pneumoniae expressing VIM-1 (IHMA599644) MITC95: with imipenem 1 μg/ml, 95% inhibition of bacterial growth
Outline: as §3

[4] = system: Serratia marcescens expressing IMP-1 (CL5741); assay type: cell-based; settings: for Serratia marcescens MITC95: IMP-1 strain CL5741, with imipenem 1 μg/ml, 95% inhibition of growth; for Serratia marcescens expressing IMP-1 (CL5741) MITC95: with imipenem 1 μg/ml, 95% inhibition of bacterial growth
Outline: as §3

[5] = system: Pseudomonas aeruginosa efflux+ (MB9798), IMP-1; assay type: cell-based; set-up: Concentration of metallo-β-lactamase inhibitor which restores susceptibility of efflux + (MB9798) strain to imipenem: unit not given here; settings: C, D serine β-lactamase inhibitor closely related to relebactam; for Concentration of metallo-β-lactamase inhibitor which restores susceptibility of efflux + (MB9798) strain to imipenem: imipenem at 2 μg/mL, in the presence of a class A; for P. aeruginosa expressing IMP-1, efflux + (MB9798) MITC95: concentration restoring susceptibility to imipenem at 2 μg/mL in the presence of a class A
Outline: as §2

[6] = system: Pseudomonas aeruginosa efflux− (MB9799), IMP-1; assay type: cell-based; settings: C, D serine β-lactamase inhibitor closely related to relebactam; for Concentration of metallo-β-lactamase inhibitor which restores susceptibility of efflux − (MB9799) strain to imipenem: imipenem at 2 μg/mL, in the presence of a class A; for P. aeruginosa expressing IMP-1, efflux − (MB9799) MITC95: concentration restoring susceptibility to imipenem at 2 μg/mL in the presence of a class A
Outline: as §2

[7] = fluorescence assay, read-out: VIM-1 IC50
[8] = fold difference between efflux+ (MB9798) and efflux− (MB9799) strains, imipenem at 2 μg/mL
[9] = ratio MITC95 PA_9798/MITC95 PA_9799

IMP-1, sequence (P52699 whole entry, looked up, species assumed): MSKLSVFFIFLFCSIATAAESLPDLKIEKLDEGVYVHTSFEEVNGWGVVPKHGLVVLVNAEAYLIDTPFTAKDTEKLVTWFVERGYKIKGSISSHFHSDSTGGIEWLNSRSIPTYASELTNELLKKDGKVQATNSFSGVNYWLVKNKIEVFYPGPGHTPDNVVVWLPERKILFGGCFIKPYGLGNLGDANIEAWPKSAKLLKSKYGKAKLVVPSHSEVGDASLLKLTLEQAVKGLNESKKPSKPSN
NDM-1, sequence (C7C422 whole entry, looked up, species assumed): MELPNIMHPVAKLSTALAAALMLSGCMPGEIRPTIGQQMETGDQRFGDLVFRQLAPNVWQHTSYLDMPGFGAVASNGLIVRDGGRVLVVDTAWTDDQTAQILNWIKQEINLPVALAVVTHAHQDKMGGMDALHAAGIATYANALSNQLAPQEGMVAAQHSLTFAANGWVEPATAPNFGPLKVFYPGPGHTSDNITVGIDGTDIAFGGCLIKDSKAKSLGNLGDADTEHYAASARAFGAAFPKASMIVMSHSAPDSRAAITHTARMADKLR

Compound | IC50 (VIM-1; [7]) [nM] | IC50 (IMP-1) [nM] | IC50 (NDM-1) [nM] | Efflux ratio [1, 8] | Escherichia coli MITC95 [2] [µM] | Klebsiella pneumoniae MITC95 [3] [µM] | Serratia marcescens MITC95 [4] [µM] | Concentration of metallo-β-lactamase inhibitor which restores susceptibility of efflux + (MB9798) strain to imipenem [5] | Concentration of metallo-β-lactamase inhibitor which restores susceptibility of efflux − (MB9799) strain to imipenem [6] | IC50 (VIM-1; VIM-1 IC50, fluorescence assay) [nM] | Efflux ratio [1, 9] | P. aeruginosa expressing IMP-1, efflux + (MB9798) MITC95 [5] [µM] | P. aeruginosa expressing IMP-1, efflux − (MB9799) MITC95 [6] [µM] | Escherichia coli expressing NDM-1 (CLB30016) MITC95 [2] [µM] | Klebsiella pneumoniae expressing VIM-1 (IHMA599644) MITC95 [3] [µM] | Serratia marcescens expressing IMP-1 (CL5741) MITC95 [4] [µM]
NCCNS(=O)(=O)c1ccc(-c2ccc3nccn3c2)c(-c2nn[nH]n2)c1S(N)(=O)=O [Example 401] | 0.0897 | 0.483 | 0.197 | 2.00 | 0.7813 | 1.563 | 0.3906 | 1.563 | 0.7813 |  |  |  |  |  |  | 
NCc1nc2c(-c3ccc(S(=O)(=O)N[C@@H](CN)CO)c(S(N)(=O)=O)c3-c3nn[nH]n3)cccc2[nH]1 [Example 379, (S)—N^1-(1-amino-3-hydroxypropan-2-yl)-4-(2-(aminomethyl)-1H-benzo[d]imidazol-4-yl)-3-(2H-tetrazol-5-yl)benzene-1,2-disulfonamide] |  | 0.626 | 0.0956 |  | 1.563 | 1.563 | 1.563 |  |  | 0.135 | 2.00 | 1.563 | 0.7813 |  |  | 
Nc1nc2c(-c3ccc(S(=O)(=O)N4CCOCC4)c(S(N)(=O)=O)c3-c3nnn[nH]3)cccc2s1 [Example 29, 3-(2-amino-1,3-benzothiazol-4-yl)-6-(morpholin-4-ylsulfonyl)-2-(1H-tetrazol-5-yl)benzenesulfonamide] |  | 2.08 | 1.35 |  |  |  |  |  |  | 3.06 | 16.00 | 50 | 3.125 | 25 | 25 | 6.25
CCC1(NS(=O)(=O)c2ccc(-c3cccc4sc(N)nc34)c(-c3nnn[nH]3)c2S(N)(=O)=O)CCNC1 (stereo not drawn) [Example 56, 4-(2-amino-1,3-benzothiazol-4-yl)-N1-(3-ethylpyrrolidin-3-yl)-3-(1H-tetrazol-5-yl)benzene-1,2-disulfonamide] | 0.245 | 0.342 | 0.0519 |  |  |  |  |  |  |  | 1.00 | 1.563 | 1.563 | 1.563 | 3.125 | 3.125
Nc1ccc(-c2ccc(S(=O)(=O)NCC3(O)CCNCC3)c(S(N)(=O)=O)c2-c2nn[nH]n2)cn1 [Example 492, 4-(6-aminopyridin-3-yl)-N1-((4-hydroxypiperidin-4-yl)methyl)-3-(2H-tetrazol-5-yl)benzene-1,2 disulfonamide] |  | 0.52 | 0.305 | 1.00 | 0.3906 | 3.125 | 1.563 | 1.563 | 1.563 | 0.24 |  |  |  |  |  | 
Nc1cc(-c2ccc(S(=O)(=O)N[C@@H]3CCNC3)c(S(N)(=O)=O)c2-c2nn[nH]n2)ccn1 [Example 288, (R)-4-(2-aminopyridin-4-yl)-N1-(pyrrolidin-3-yl)-3-(2H-tetrazol-5-yl)benzene-1,2-disulfonamide] | 0.0781 | 0.462 | 0.0985 |  | 0.7813 | 1.563 | 1.563 |  |  |  | 2.00 | 1.563 | 0.7813 |  |  | 
NCC(CN)NS(=O)(=O)c1ccc(-c2cccc(-c3c[nH]c(N)n3)c2)c(-c2nn[nH]n2)c1S(N)(=O)=O [Example 435] | 1.21 | 1.78 | 0.46 | 2.00 | 1.563 | 3.125 | 3.125 | 3.125 | 1.563 |  |  |  |  |  |  | 
C[C@H](CN)NS(=O)(=O)c1ccc(-c2cncc(N)c2)c(-c2nn[nH]n2)c1S(N)(=O)=O [Example 221, (R)—N1-(1-aminopropan-2-yl)-4-(5-aminopyridin-3-yl)-3-(2H-tetrazol-5-yl)benzene-1,2-disulfonamide] | 0.152 | 0.688 | 0.281 |  |  |  |  |  |  |  | 1.00 | 1.563 | 1.563 | 1.563 | 6.25 | 1.563
NS(=O)(=O)c1c(S(=O)(=O)N[C@@H]2CCNC2)ccc(-c2cnc3ccccn23)c1-c1nnn[nH]1 [Example 140, (R)-4-(imidazo[1,2-a]pyridin-3-yl)-N1-(pyrrolidin-3-yl)-3-(1H-tetrazol-5-yl)benzene-1,2-disulfonamide] | 0.111 | 0.779 | 0.0867 |  |  |  |  |  |  |  | 2.00 | 1.563 | 0.7813 | 0.7813 | 1.563 | 1.563
NC[C@@H](N)CNS(=O)(=O)c1ccc(-c2cccc3ccc(N)nc23)c(-c2nn[nH]n2)c1S(N)(=O)=O [Example 376, (R)-4-(2-aminoquinolin-8-yl)-N1-(2,3-diaminopropyl)-3-(2H-tetrazol-5-yl)benzene-1,2-disulfonamide] |  | 0.273 | 0.0551 |  | 0.7813 | 3.125 | 3.125 |  |  | 0.274 | 1.00 | 1.563 | 1.563 |  |  | 
